Laboratory results published in ChEMBL document CHEMBL3758169, “4-Aminoindazolyl-dihydrofuro[3,4-d]pyrimidines as non-covalent inhibitors of mutant epidermal growth factor receptor tyrosine kinase” (Bioorg Med Chem Lett, 2016).

Legend:
[1] = target: MAP/microtubule affinity-regulating kinase 3 (Homo sapiens) (UniProt P27448); assay: Inhibition of MARK3 (unknown origin) at 100 nM
[2] = target: Mitogen-activated protein kinase kinase kinase 9 (Homo sapiens) (UniProt P80192); assay: Inhibition of MLK1 (unknown origin) at 100 nM
[3] = target: Mitogen-activated protein kinase kinase kinase 10 (Homo sapiens) (UniProt Q02779); assay: Inhibition of MLK2 (unknown origin) at 100 nM
[4] = target: Serine/threonine-protein kinase 3 (Homo sapiens) (UniProt Q13188); assay: Inhibition of MST2 (unknown origin) at 100 nM
[5] = target: Myosin light chain kinase (Homo sapiens) (UniProt Q32MK0); assay: Inhibition of MYLK3 (unknown origin) at 100 nM
[6] = target: Serine/threonine-protein kinase Nek9 (Homo sapiens) (UniProt Q8TD19); assay: Inhibition of NEK9 (unknown origin) at 100 nM
Sequence of Serine/threonine-protein kinase Nek9 (Homo sapiens) (Q8TD19 whole entry): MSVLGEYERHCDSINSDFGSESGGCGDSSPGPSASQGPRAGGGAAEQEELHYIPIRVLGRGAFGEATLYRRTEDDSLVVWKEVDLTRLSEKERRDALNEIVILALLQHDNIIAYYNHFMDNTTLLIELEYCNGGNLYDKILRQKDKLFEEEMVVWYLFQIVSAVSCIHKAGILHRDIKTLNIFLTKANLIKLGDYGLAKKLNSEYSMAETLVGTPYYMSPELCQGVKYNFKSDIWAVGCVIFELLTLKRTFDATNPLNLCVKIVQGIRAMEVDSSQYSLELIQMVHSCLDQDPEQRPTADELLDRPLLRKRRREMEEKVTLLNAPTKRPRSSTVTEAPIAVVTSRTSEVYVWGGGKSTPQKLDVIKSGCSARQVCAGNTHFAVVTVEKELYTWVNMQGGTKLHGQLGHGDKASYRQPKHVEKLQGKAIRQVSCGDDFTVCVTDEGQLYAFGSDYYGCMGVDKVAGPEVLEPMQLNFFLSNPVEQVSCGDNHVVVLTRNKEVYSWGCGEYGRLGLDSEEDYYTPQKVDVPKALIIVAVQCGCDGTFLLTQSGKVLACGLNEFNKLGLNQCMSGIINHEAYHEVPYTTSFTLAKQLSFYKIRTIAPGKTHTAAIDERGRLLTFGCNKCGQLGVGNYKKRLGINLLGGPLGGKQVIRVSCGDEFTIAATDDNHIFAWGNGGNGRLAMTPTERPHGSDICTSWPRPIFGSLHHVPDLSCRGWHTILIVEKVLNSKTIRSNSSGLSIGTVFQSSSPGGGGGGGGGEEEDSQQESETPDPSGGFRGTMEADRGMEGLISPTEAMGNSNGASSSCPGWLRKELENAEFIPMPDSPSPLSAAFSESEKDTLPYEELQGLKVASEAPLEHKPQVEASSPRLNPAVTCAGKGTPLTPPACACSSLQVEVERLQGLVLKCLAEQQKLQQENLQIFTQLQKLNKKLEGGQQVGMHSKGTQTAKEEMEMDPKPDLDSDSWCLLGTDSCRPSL

[7] = target: Serine/threonine-protein kinase PAK 1 (Homo sapiens) (UniProt Q13153); assay: Inhibition of PAK1 (unknown origin) at 100 nM
[8] = target: Serine/threonine-protein kinase PAK 2 (Homo sapiens) (UniProt Q13177); assay: Inhibition of PAK2 (unknown origin) at 100 nM
[9] = target: Serine/threonine-protein kinase PAK 5 (Homo sapiens) (UniProt Q9P286); assay: Inhibition of PAK7 (unknown origin) at 100 nM
[10] = system: Platelet-derived growth factor receptor alpha (Homo sapiens), P16234 [V561D]; assay: Inhibition of PDGFRalpha V561D mutant (unknown origin) at 100 nM
[11] = target: 3-phosphoinositide-dependent protein kinase 1 (Homo sapiens) (UniProt O15530); assay: Inhibition of PDK1 (unknown origin) by direct binding assay at 100 nM
[12] = target: Phosphatidylinositol 4,5-bisphosphate 3-kinase catalytic subunit delta isoform (Homo sapiens) (UniProt O00329); assay: Inhibition of PI3KD (unknown origin) at 100 nM
[13] = target: Serine/threonine-protein kinase PLK3 (Homo sapiens) (UniProt Q9H4B4); assay: Inhibition of PLK3 (unknown origin) at 100 nM
Sequence of Serine/threonine-protein kinase PLK3 (Homo sapiens) (Q9H4B4 whole entry, looked up): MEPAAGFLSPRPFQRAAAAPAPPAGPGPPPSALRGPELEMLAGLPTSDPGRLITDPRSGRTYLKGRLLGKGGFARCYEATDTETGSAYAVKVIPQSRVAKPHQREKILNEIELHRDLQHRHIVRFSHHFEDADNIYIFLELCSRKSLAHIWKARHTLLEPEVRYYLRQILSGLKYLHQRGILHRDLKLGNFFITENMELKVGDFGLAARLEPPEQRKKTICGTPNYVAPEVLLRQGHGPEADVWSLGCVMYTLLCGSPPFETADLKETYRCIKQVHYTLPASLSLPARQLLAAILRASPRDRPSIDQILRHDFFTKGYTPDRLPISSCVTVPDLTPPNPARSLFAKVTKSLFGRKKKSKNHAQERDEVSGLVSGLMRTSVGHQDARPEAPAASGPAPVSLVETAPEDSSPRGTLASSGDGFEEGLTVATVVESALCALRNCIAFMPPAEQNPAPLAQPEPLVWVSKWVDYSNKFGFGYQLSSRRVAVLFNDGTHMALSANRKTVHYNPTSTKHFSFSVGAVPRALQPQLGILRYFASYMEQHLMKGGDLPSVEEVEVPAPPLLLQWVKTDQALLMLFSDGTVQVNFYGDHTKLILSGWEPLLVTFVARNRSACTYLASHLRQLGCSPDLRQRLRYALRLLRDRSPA

[14] = target: Serine/threonine-protein kinase N1 (Homo sapiens) (UniProt Q16512); assay: Inhibition of PRK1 (unknown origin) at 100 nM
Sequence of Serine/threonine-protein kinase N1 (Homo sapiens) (Q16512 2-942 limits assumed): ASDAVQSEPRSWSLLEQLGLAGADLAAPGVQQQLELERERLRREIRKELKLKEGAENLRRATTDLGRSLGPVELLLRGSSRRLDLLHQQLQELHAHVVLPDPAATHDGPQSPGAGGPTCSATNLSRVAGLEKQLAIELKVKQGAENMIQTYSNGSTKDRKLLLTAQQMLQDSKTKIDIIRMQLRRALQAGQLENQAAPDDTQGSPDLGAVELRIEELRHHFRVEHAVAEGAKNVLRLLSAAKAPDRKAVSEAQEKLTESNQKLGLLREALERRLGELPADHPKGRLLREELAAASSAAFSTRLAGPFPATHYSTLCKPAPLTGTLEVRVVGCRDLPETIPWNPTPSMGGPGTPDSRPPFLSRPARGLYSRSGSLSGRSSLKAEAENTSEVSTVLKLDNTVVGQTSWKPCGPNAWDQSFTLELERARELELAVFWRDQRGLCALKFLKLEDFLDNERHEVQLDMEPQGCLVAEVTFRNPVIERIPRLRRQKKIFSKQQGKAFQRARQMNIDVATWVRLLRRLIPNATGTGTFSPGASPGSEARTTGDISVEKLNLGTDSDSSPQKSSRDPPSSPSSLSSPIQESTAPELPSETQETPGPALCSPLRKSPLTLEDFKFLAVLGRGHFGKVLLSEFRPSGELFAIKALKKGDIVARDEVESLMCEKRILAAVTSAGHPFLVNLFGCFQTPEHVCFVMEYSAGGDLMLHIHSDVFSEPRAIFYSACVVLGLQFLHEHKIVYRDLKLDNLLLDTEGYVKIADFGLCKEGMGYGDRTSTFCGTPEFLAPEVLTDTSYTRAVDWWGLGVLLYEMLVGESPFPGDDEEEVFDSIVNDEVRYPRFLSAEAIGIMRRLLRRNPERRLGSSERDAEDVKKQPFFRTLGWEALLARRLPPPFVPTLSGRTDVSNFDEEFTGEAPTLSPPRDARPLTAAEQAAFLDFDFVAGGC

[15] = target: Receptor-interacting serine/threonine-protein kinase 2 (Homo sapiens) (UniProt O43353); assay: Inhibition of RIPK2 (unknown origin) at 100 nM
[16] = target: Ribosomal protein S6 kinase alpha-6 (Homo sapiens) (UniProt Q9UK32); assay: Inhibition of RSK4 (unknown origin) at 100 nM
[17] = target: Serine/threonine-protein kinase Sgk3 (Homo sapiens) (UniProt Q96BR1); assay: Inhibition of SGK3 (unknown origin) at 100 nM
[18] = target: Serine/threonine-protein kinase SIK2 (Homo sapiens) (UniProt Q9H0K1); assay: Inhibition of SIK2 (unknown origin) at 100 nM
[19] = target: Serine/threonine-protein kinase 16 (Homo sapiens) (UniProt O75716); assay: Inhibition of STK16 (unknown origin) at 100 nM
[20] = target: Wee1-like protein kinase (Homo sapiens) (UniProt P30291); assay: Inhibition of WEE1 (unknown origin) at 100 nM
[21] = target: Mitogen-activated protein kinase 14 (Homo sapiens) (UniProt Q16539); assay: Inhibition of p38alpha (unknown origin) at 100 nM
[22] = target: Mitogen-activated protein kinase 12 (Homo sapiens) (UniProt P53778); assay: Inhibition of p38gamma(unknown origin) at 100 nM
[23] = target: Activin receptor type-1B (Homo sapiens) (UniProt P36896); assay: Inhibition of ACVR1B (unknown origin) at 100 nM
[24] = target: Activin receptor type-1 (Homo sapiens) (UniProt Q04771); assay: Inhibition of ALK2 (unknown origin) at 100 nM
[25] = target: Casein kinase I isoform delta (Homo sapiens) (UniProt P48730); assay: Inhibition of CK1delta (unknown origin) at 100 nM
[26] = target: Calcium/calmodulin-dependent protein kinase type 1 (Homo sapiens) (UniProt Q14012); assay: Inhibition of CaMKI (unknown origin) at 100 nM
[27] = target: Calcium/calmodulin-dependent protein kinase type 1D (Homo sapiens) (UniProt Q8IU85); assay: Inhibition of CaMKIdelta (unknown origin) at 100 nM
[28] = target: Discoidin domain-containing receptor 2 (Homo sapiens) (UniProt Q16832); assay: Inhibition of DDR2 (unknown origin) at 100 nM
[29] = target: Dual specificity tyrosine-phosphorylation-regulated kinase 4 (Homo sapiens) (UniProt Q9NR20); assay: Inhibition of DYRK4 (unknown origin) at 100 nM
[30] = target: Ephrin type-B receptor 1 (Homo sapiens) (UniProt P54762); assay: Inhibition of EPHB1 (unknown origin) at 100 nM
[31] = target: Ephrin type-B receptor 4 (Homo sapiens) (UniProt P54760); assay: Inhibition of EPHB4 (unknown origin) at 100 nM
[32] = target: Receptor tyrosine-protein kinase erbB-4 (Homo sapiens) (UniProt Q15303); assay: Inhibition of ERBB4 (unknown origin) at 100 nM
[33] = target: Focal adhesion kinase 1 (Homo sapiens) (UniProt Q05397); assay: Inhibition of FAK (unknown origin) at 100 nM
[34] = target: Vascular endothelial growth factor receptor 3 (Homo sapiens) (UniProt P35916); assay: Inhibition of FLT4 (unknown origin) at 100 nM
[35] = target: Glycogen synthase kinase-3 alpha (Homo sapiens) (UniProt P49840); assay: Inhibition of GSK3aplha (unknown origin) at 100 nM
Sequence of Glycogen synthase kinase-3 alpha (Homo sapiens) (P49840 2-483 limits assumed): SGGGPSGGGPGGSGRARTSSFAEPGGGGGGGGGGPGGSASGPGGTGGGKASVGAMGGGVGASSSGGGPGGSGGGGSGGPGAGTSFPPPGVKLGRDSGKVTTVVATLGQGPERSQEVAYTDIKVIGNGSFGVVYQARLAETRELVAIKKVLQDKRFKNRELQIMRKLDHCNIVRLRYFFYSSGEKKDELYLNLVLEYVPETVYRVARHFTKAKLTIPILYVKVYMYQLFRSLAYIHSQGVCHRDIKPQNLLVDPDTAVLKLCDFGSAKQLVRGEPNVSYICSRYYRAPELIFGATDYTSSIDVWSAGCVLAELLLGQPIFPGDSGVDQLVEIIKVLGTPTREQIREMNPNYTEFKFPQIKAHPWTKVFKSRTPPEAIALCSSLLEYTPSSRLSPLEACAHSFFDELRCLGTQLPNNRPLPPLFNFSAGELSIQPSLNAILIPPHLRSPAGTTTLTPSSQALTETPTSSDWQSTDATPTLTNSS

[36] = target: Homeodomain-interacting protein kinase 1 (Homo sapiens) (UniProt Q86Z02); assay: Inhibition of HIPK1 (unknown origin) at 100 nM
Sequence of Homeodomain-interacting protein kinase 1 (Homo sapiens) (Q86Z02 whole entry, looked up): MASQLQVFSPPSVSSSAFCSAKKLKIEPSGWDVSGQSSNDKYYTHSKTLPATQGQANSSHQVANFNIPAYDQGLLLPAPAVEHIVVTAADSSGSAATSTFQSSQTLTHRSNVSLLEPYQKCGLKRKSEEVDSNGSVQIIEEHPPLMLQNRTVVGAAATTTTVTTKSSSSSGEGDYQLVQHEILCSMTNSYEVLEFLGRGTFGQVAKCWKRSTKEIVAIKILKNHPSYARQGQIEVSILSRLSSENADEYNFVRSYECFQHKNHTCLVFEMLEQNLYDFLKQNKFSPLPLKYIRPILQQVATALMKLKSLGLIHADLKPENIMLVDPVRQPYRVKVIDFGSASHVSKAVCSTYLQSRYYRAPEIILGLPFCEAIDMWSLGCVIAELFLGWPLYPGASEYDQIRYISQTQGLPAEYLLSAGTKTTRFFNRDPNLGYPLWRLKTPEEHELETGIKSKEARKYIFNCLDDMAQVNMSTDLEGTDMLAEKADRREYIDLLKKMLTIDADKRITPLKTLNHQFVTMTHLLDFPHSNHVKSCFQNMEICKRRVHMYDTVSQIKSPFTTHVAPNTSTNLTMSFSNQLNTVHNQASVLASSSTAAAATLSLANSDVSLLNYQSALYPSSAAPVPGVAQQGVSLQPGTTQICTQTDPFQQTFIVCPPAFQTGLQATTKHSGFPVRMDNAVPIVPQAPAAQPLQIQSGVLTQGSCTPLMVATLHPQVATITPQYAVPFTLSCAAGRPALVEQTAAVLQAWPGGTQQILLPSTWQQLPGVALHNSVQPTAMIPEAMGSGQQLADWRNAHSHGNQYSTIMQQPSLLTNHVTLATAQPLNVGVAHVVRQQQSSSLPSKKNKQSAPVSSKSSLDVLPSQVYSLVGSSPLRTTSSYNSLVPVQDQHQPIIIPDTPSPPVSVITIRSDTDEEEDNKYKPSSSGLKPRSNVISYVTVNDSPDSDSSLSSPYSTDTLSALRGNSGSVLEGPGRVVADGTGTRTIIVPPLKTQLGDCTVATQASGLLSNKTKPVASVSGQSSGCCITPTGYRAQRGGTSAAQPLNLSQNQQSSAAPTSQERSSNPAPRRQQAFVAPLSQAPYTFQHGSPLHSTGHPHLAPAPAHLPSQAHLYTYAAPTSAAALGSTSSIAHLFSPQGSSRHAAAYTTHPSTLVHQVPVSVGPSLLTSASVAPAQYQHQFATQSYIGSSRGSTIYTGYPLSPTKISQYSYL

[37] = target: Homeodomain-interacting protein kinase 3 (Homo sapiens) (UniProt Q9H422); assay: Inhibition of HIPK3 (unknown origin) at 100 nM
[38] = target: Homeodomain-interacting protein kinase 4 (Homo sapiens) (UniProt Q8NE63); assay: Inhibition of HIPK4 (unknown origin) at 100 nM
[39] = target: Tyrosine-protein kinase JAK3 (Homo sapiens) (UniProt P52333); assay: Inhibition of JAK3 (unknown origin) at 100 nM
[40] = target: LIM domain kinase 2 (Homo sapiens) (UniProt P53671); assay: Inhibition of LIMK2 (unknown origin) at 100 nM
Sequence of LIM domain kinase 2 (Homo sapiens) (P53671 whole entry, looked up, the tested form may be a part): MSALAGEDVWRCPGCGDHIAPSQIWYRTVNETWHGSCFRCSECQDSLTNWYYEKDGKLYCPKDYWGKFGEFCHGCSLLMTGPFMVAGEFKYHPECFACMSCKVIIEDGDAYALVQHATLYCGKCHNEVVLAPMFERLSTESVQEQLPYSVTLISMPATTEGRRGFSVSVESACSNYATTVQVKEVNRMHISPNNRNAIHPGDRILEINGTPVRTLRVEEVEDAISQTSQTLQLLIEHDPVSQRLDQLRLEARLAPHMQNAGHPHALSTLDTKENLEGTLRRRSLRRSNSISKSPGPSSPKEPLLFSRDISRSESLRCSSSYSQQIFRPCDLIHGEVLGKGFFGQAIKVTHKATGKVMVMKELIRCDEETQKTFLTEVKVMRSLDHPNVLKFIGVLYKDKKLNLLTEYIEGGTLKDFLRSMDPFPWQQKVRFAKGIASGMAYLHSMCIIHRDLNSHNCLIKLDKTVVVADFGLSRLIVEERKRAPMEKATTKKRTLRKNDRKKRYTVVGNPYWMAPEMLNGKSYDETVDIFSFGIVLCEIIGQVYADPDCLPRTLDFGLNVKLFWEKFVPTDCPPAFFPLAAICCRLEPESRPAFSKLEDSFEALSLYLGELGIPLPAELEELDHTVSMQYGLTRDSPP

[41] = system: Leucine-rich repeat serine/threonine-protein kinase 2 (Homo sapiens), Q5S007 [G2019S]; assay: Inhibition of LRRK2 G2019S mutant (unknown origin) at 100 nM
[42] = target: Protein-tyrosine kinase 6 (Homo sapiens) (UniProt Q13882); assay: Inhibition of BRK (unknown origin) at 100 nM

- inhibition [1]: 8.4%
- inhibition [2]: 2.9%
- inhibition [3]: 2.3%
- inhibition [4]: -2.4%
- inhibition [5]: 20.6%
- inhibition [7]: -4.1%
- inhibition [8]: 0.3%
- inhibition [9]: -1.8%
- inhibition [10]: 89.2%
- inhibition [11]: -1.4%
- inhibition [12]: -7.6%
- inhibition [13]: -5.4%
- inhibition [14]: 3.7%
- inhibition [15]: 97.2%
- inhibition [16]: 9.8%
- inhibition [17]: 3.1%
- inhibition [18]: 35.3%
- inhibition [19]: 29.5%
- inhibition [20]: 36.1%
- inhibition [21]: 44.5%
- inhibition [22]: 10.3%
- inhibition [23]: 70.7%
- inhibition [24]: 30.3%
- inhibition [25]: 13.1%
- inhibition [26]: 4.5%
- inhibition [27]: -5.3%
- inhibition [28]: 23.4%
- inhibition [29]: 0.7%
- inhibition [30]: 22%
- inhibition [31]: 40.7%
- inhibition [32]: 89.9%
- inhibition [33]: 7.2%
- inhibition [34]: 95.8%
- inhibition [35]: 30.8%
- inhibition [36]: -2%
- inhibition [37]: 8.6%
- inhibition [38]: 5.1%
- inhibition [39]: 2.7%
- inhibition [40]: -2.1%
- inhibition [41]: 16%
- inhibition [42]: 90.6%
SMILES: CC1(C)OCc2c(Nc3n[nH]c4ccccc34)nc(-c3cn[nH]c3)nc21
- inhibition [6]: -0.2%
